US20220184037A1, “PHARMACEUTICAL AGENTS TARGETING CANCER STEM CELLS” (THE JOHNS HOPKINS UNIVERSITY, priority 2020, published 2022)

Assays:
SOX2 = test: Western blotting / flow cytometry of SOX2 expression in bladder cancer cells; type: cell-based, human
Procedure: (§1) Whole cell lysates were extracted using RIPA buffer (Thermo Scientific) supplemented with 10 μL/mL Halt™ Protease Inhibitor Cocktail Kit (Life Technologies) and 30 μL/mL Halt™ Phosphatase Inhibitor Cocktail Kit (Life Technologies). The protein concentrations were determined using a Pierce™ BCA Protein Assay Kit (Life Technologies), and the protein were separated on. NuPAGE 4-12% Bis-Tris Gel (Life Technologies) according to the manufacturer's protocol. COX2 (D5H5), NANOG (D73G4), OCT4 (D7O5Z), CD133 (A3G6K), Snail (C15D3), ZEBI (D80D3), Vimentin (D21H3), CDH2 (D4R1H), CDH1 (24E10), p-EGFR (D7A5), EGFR (D38B1), p-AKT (D9E), AKT (cat #, 9272), p-ERK (D13.14.4E), ERK (137F5), p-YAP1 (D9W2I), p-Src (cat #, 2101), Src (36D10), DNMT1 (D63A6), DNMT3A (D23G1), and DNMT3B (D7070) antibodies were obtained from Cell Signaling Technology (Danvers, Mass., USA), except for SOX2 (EPR3131; Abeam, Cambridge, USA), YAP1 (ab52771; Abeam), CD24 (cat #, AF5247-SP; R&D Systems, Minneapolis USA) and β-actin (A2228; Sigma-Aldrich). Secondary horseradish peroxidase (HRP)-conjugated antibodies were obtained from Cell Signaling Technology, and chemiluminescent detection of HRP-labeled antibodies was performed using Amersham ECL Prime Western Blotting Detection Reagent (GE Healthcare, Piscataway, USA). As loading control, β-actin was used.
For extracellular staining, cells (1×10^6/100 μL stain buffer) were incubated with PE-Vio770-conjugated anti-human CD133 (293C3; Miltenyi Biotec, Auburn, USA) or PE-conjugated anti-human CD24 antibody (cat #, 560991; BD Biosciences) for 30 min at 4° C. in dark. PE-Vio770-conjugated anti-IgG1κ Isotype (cat #, 130-098-563; Miltenyi Biotec) and PE-conjugated IgG2a, κ Isotype (cat #, 555574; BD Biosciences) were used as control for CD133 and CD24 staining, respectively. Staining for intracellular SOX2 was carried out using the BD Cytofix/Cytopem Fixation/Permeabilization Kit (BD Biosciences) according to manufacturer's protocol. The cells were incubated with Alexa Fluor 647-conjugated anti-SOX2 antibody (cat #, 560302; BD Biosciences) for 40 min at 4° C. in dark. Alexa Fluor 647-conjugated anti-IgG2a, κ Isotype (cat #, 558053; BD Biosciences) was used as control. Data were acquired on a BD FACSCalibur flow cytometer (BD Biosciences) using BD CellQuest Pro software (BD Biosciences) and analyzed with FlowJo software v10.1 (Tree Star, Ashland, USA).

COX2 = test: Western blotting of COX2 expression in bladder cancer cells; type: cell-based, human
Procedure: as §1

[1] = Body weight of treated mice; type: in vivo; settings: mouse, in vivo
Procedure: For therapeutic efficacy, mice were randomly assigned into experimental groups (five mice per group) when tumors reached a volume of […]. For celecoxib and/or VP treatment, celecoxib (5 mg/kg) was administered via intraperitoneal (i.p.) injection once a day (17), and VP (50 mg/kg) was administered via i.p. every other day (18). EP4 antagonist ONO-AE3-208 (10 mg/kg) was administered via i.p. once a day (19). Control was applied with same volume (10 μL per injection) of 10% dimethyl sulphoxide in 1% TWEEN 80 (Sigma-Aldrich). For GEM and CDDP (GC) treatment (i.p.), CDDP (6 mg/kg) was only applied after the first GEM (60 mg/kg) treatment on day 2, followed by three consecutive treatments of GEM on day 5, 8 and 11 (17). The next cycle was started on day 18, and the treatment was continued until tumor reached 2 cm in diameter. For erlotinib treatment, the mice were treated once a day, 6 days per week, by oral gavage with erlotinib (100 mg/kg) or control (PBS containing 0.5% methyl cellulose (Sigma-Aldrich) and 0.1% TWEEN 80) (20). Tumor size was measured at least every three days. Therapeutic efficacy was assessed using percentage change after treatment related to tumor size before treatment. […]

YAP1 = test: Western blotting of YAP1 expression in bladder cancer cells; type: cell-based, human
Procedure: as §1

[2] = system: bladder cancer cells (urothelial CSCs); test: Sphere formation assay; type: cell-based, human; settings: for sphere-forming ability / sphere formation: COX2 inhibitor or EP4 antagonist alone
Procedure: Sphere formation was induced by culturing cells (2×10^4/well) in […] F12 50/50 Mix (Mediatech) supplemented with B-27 (Life Technologies), 20 ng/mL FGF-basic (Peprotech), 20 ng/mL EGF (Peprotech). Cell culture was performed in ultra-low attachment 6 well plates (Corning, Lowell, USA) for 10 days. The medium was replaced every other day. Sphere formation was evaluated using the inverted phase-contrast microscope, and single sphere with a diameter larger than 100 gm was counted using NIS-Elements Microscope Imaging Software. To redifferentiate spheres, spheres were plated in standard growth medium with 10% FBS in dishes supporting cell attachment, and incubated for 7 days. For self-renewal assay, primary spheres were collected by gentle centrifugation (5 min at 400×g), dissociated with Stempro Accutase Cell Dissociation Reagent (Life Technologies), and mechanically disrupted with a pipette. The cell suspension was sieved through 40 μm cell strainer cap filter to achieve a single-cell suspension, and then equal numbers of alive cells were plated in ultralow attachment plates to generate the second spheres. Again, spheres were counted on day 14 and digested to generate the third Spheres. All the experiments were performed in triplicate and repeated at least three times.

DNMT 1 and 3A = test: Western blotting of DNMTs; type: cell-based, human; settings: PGE2-treated cells
Procedure: as §1

let-7 = let-7 expression by Q-RT-PCR; type: cell-based, human; settings: parental or spheroid bladder cancer cells
Procedure: (§2) Total RNA from cell lines was isolated using the RNeasy Plus Mini kit (Qiagen, Valencia, USA) according to the manufacturer's protocol. Total RNA extraction from bladder tissue was performed with the QIAzol Lysis Reagent (Qiagen) followed by phenol extraction and ethanol precipitation. Total RNA was eluted in DEPC treated water and stored at −80 ° C. Total RNA extraction from urine was performed using the MirVana miRNA Isolation Kit (Ambion, Austin, USA). These total RNA were converted to cDNA using the SuperScript III First-Strand Synthesis System (Life technologies, Carlsbad, USA), which was then used as a template for Q-RT-PCR. Q-RT-PCR was performed using the Fast SYBR Green Master Mix (Thermo Fisher Scientific, Waltham, USA) on a 7900HT Fast Real-Time PCR System (Life technologies) in triplicate. Micro RNA (miRNA) extraction was performed using the MirVana miRNA Isolation Kit, and was reverse transcribed using TaqMan reverse transcription kit (Applied Biosystems, Foster City, USA) and miRNA-specific RT primers provided with TaqMan microRNA assays (Applied Biosystems). Q-RT-PCR for miRNAs was performed using the TaqMan Universal PCR Master Mix according to the manufacturer's protocol. SDS software (Applied Biosystems) was used to determine cycle threshold (Ct) values. Expression level was quantified relative to β-actin for mRNA and RNU6B for miRNA using the 2-ΔΔCt method (12).
For demethylation, cells (1×10^6/T-75 flask) were treated with […] of the demethylating agent 5-Aza-dC (Sigma) dissolved in 50% acetic acid or were mock-treated with phosphate buffered saline (PBS) including the same amount of acetic acid every 24 hours for 5 days. When combined with the histone deacetylase inhibitor TSA (Sigma), 300 nmol/L TSA was added to the medium for the final 24 hours.

[3] = system: panel of miRNAs in BFTC 905 cells; test: Expression of a panel of miRNAs; type: cell-based, human; settings: addition of PGE2 to COX2 inhibitor
Procedure: as §2

[4] = system: let-7 host gene MIRLET7BHG promoter; test: Bisulfite sequencing of let-7 host gene promoter methylation; type: cell-based, human; settings: 10 μM celecoxib, 2 μM PGE2, or 5 μM 5-Aza-dC for 5 days
Procedure: Cell pellets were digested with 1% sodium dodecyl sulfate and 50 μg/mL proteinase K (Roche, Nutley, USA) at 48° C. overnight. Isolation of genomic DNA from cell lines was performed with the phenol-chloroform extraction protocol followed by ethanol precipitation. Bisulfite treatment was conducted using an EpiTect Bisulfite K ft (QIAGEN, Valencia, USA), and was subsequently amplified via PCR using primers as shown in the following table. PCR products were purified using the QIAquick Gel Extraction kit (Qiagen), and sequenced by Genewiz DNA sequencing service (Genewiz, South Plainfield, USA). The data were analyzed using the Sequence Scanner v1.0 software (Life technologies). A methylation frequency of ≥50% of total CpG sites within the amplified region was considered “methylation-positive”. For demethylation, cells ([…]) dissolved in 50% acetic acid or were mock-treated with phosphate buffered saline (PBS) including the same amount of acetic acid every 24 hours for 5 days. When combined with the histone deacetylase inhibitor TSA (Sigma), 300 nmol/L TSA was added to the medium for the final 24 hours.

[5] = addition of PGE2 to celecoxib treatment
[6] = COX2 inhibitor or EP4 antagonist alone (FIG. 2A-B, S7)

Molecule: C=Cc1c(C)c2cc3nc(cc4[nH]c(cc5nc(cc1[nH]2)C(C)=C5CCC(=O)O)c(CCC(=O)OC)c4C)[C@@]1(C)C3=CC=C(C(=O)OC)[C@H]1C(=O)OC [VP, 3-[(23S,24R)-14-ethenyl-5-(3-methoxy-3-oxopropyl)-22,23-bis(methoxycarbonyl)-4,10,15,24-tetramethyl-25,26,27,28-tetraazahexacyclo[16.6.1.1^3,6.1^8,11.1^13,16.0^19,24]octacosa-1,3,5,7,9,11(27),12,14,16,18(25),19,21-dodecaen-9-yl]propanoic acid]
- expression of SOX2 and its related molecules (SOX2; VP alone): reduced expression
- COX2 expression (COX2; VP alone): induced COX2 expression in a dose-dependent manner
- body weight loss [1]: did not observe body weight loss

Molecule: N.N.[Cl][Pt][Cl] [cisplatin, Cisplatin]
- SOX2 expression (SOX2; CDDP chemotherapy alone): overexpression
- COX2 expression (COX2; CDDP chemotherapy alone): overexpression
- YAP1 expression (YAP1; CDDP chemotherapy alone): overexpression
- sphere formation ([2]; CDDP chemotherapy alone): increased sphere formation

Molecule: EGF: Recombinant human epidermal growth factor
- SOX2 expression (SOX2; EGF-stimulated EGFR signaling): increased
- YAP1 expression (YAP1; EGF-stimulated EGFR signaling): increased

Molecule: CCCCC[C@H](O)/C=C/[C@H]1[C@H](O)CC(=O)[C@@H]1C/C=C\CCCC(=O)O [PGE2, Prostaglandin E2]
- celecoxib-repressed SOX2 expression (SOX2; [5]): restored
- DNMT 1 and 3A expression (DNMT 1 and 3A): upregulated
- celecoxib-repressed sphere-forming ability [2, 5]: restored
- let-7 expression (let-7): reduced its expression
- expression of several miRNAs [3]: reduced these expression
- promoter methylation of the let-7 host gene [4]: Promoter methylation of the let-7 host gene was observed

Molecule: CCc1cccc2c3c([nH]c12)C(CC)(CC(=O)O)OCC3 (stereo not shown) [etodolac, Etodolac]
- SOX2 expression (SOX2; [6]): dramatic reduction
- sphere-forming ability / sphere formation [2]: dramatic reduction

Molecule: CC(C(=O)Nc1cc(C#N)ccc1CCCC(=O)O)c1ccc(F)c2ccccc12 (stereo not shown) [EP4-specific antagonist, ONO-AE3-208]
- SOX2 expression (SOX2; [6]): dramatic reduction
- sphere-forming ability / sphere formation [2]: dramatic reduction

Molecule: Nc1ncn([C@H]2C[C@H](O)[C@@H](CO)O2)c(=O)n1 [5-Aza-dC, 5-Aza-2′-deoxycytidine]
- let-7 expression (let-7): restoration of let-7 expression
- promoter methylation of the let-7 host gene [4]: demethylated

Molecule: CC(C)(C)n1nc(-c2ccc(Cl)cc2)c2c(N)ncnc21 [Src inhibitor, PP2]
- COX2 inhibitor-induced YAP1 expression (YAP1; treatment with the Src inhibitor (FIG. S8H)): downregulated
